Test results from patent US11465995B2, “Crystal and salt forms of tricyclic compound and preparation process thereof” (SHIJIAZHUANG SAGACITY NEW DRUG DEVELOPMENT COMPANY, LTD., priority 2018, dated 2022).

Tests used:
[1] = Pharmacokinetic evaluation in SD rats; type: in vivo; settings: Sprague Dawley, rat, plasma, 3 mg/kg, male, intravenous injection and oral administration, Ozanimod at 3 mpk
Protocol: This Example is provided to test pharmacokinetics of compounds in SD rats.
Materials: Sprague Dawley rats (male, 200-300 g, 7-9 weeks, Shanghai SLAC)
Procedures: The rodent pharmacokinetic characteristics of the compound after intravenous injection and oral administration were tested according to standard protocol. In the test, the candidate compound was formulated as a clear solution, and the rats were given a single intravenous injection and oral administration. The intravenous and oral vehicles were a hydroxypropyl β cyclodextrin aqueous solution in a certain proportion or normal saline solution. The whole blood sample within 24 h was collected, centrifuged at 3000 g for 15 min, and the supernatant was separated to give the plasma sample. 4 volumes of acetonitrile solution containing internal standard was added to precipitate protein and after centrifugation the supernatant was collected and added with equal volume of water. After further centrifugation, the supernatant was used for injection. Quantitative analysis of blood drug concentration was done by LC-MS/MS analysis method and pharmacokinetic parameters were calculated, such as Cmax, Tmax, clearance, half-life, area under the curve of drug concentration-time, bioavailability, etc.

blood lymphocytes = assay: Effects of single oral administration on blood lymphocytes in rats; type: in vivo, SD rats; settings: 1.0 mg/kg single oral; for Percentage of lymphocytes in white blood cells in a unit volume of blood (%) / Rate of change of lymphocytes in blood after administration (%): mean ± SEM
Protocol: Normal SPF grade male SD rats were administered by single oral gavage. The experiment contained five groups: the vehicle control group, the reference compound Ozanimod group, Compound 1-0.3 mg/kg dose group, Compound 1-1.0 mg/kg dose group, Compound 1-3 mg/kg dose group. Blood was collected 0.5 h before administration and 4, 8, 24 h after administration, and anticoagulated with 10% K2-EDTA. The anticoagulated blood sample was placed in 4° C. environment, diluted 1:4 with normal saline, and quickly tested with a hematology analyzer to calculate the number of lymphocytes per liter of blood and the percentage in the total white blood cells. Graphpad prism 6.0 software was used to calculate the mean±standard error, and the two-way ANOVA test was used to test the significance of the difference. When p<0.05, there was a significant difference between two groups.

[2] = tested on: TNBS-induced acute infectious bowel disease (IBD) model; assay: Pharmacodynamic test on TNBS-induced acute infectious bowel disease (IBD) model in female SD rats; type: in vivo; set-up: Ulcer score / Inflammation score / Total injury score: scale not given here; settings: for Injury area (cm^2) / Ulcer area (cm^2) / Inflammation score / Total injury score / Ulcer score: mean ± sem; for Inflammation score / Total injury score / Ulcer score: colon pathological test
Protocol: Female SD rats were divided into 7 groups, that is, model group, prednisolone-10 mg/kg group, Ozanimod-0.3 mg/kg group, Ozanimod-1.0 mg/kg group, Compound 1-0.1 mg/kg group, Compound 1-0.3 mg/kg group, Compound 1-0.6 mg/kg group. All animals were deeply anesthetized with pentobarbital sodium, and TNBS-50% alcohol solution was inserted into the intestinal cavity from the anus for modeling. The animal's anus was squeezed, and the animal was allowed to stand upside down for 5 min. The animals were returned to the cage after assured to be leak free.
The test compounds were administered orally 1 h after modeling, once a day for 7 days. The model group was given an equal volume of drug vehicle. The animals were weighed daily before administration of the test compound and were monitored for daily fecal traits and given clinical observation scores. The day after the last administration, all animals were euthanized. The colons were collected (anal to nodular part), the length and weight of the colons were measured, and the gross anatomical scores of the lesion sizes was taken. The gross anatomical images of the colon lesions were recorded, and the tissues were fixed in 10% neutral formalin solution and were subjected to histopathological analysis.

[3] = Stability test of Crystal Form A solid (accelerated, 40° C./75% humidity, open); type: physicochemical
Protocol: Crystal Form A was placed in an opening container with constant temperature and humidity for accelerated test, under the conditions of 40° C./75% humidity (open). Samples were taken at 1st, 2nd, 3rd month for testing, and the test results were compared with initial results of day 0.

[4] = 0.3 mg/kg oral once a day for 7 days
[5] = 1.0 mg/kg oral once a day for 7 days
[6] = 10 mg/kg oral once a day for 7 days
[7] = 40° C./75% humidity (Open), 1 month
[8] = 40° C./75% humidity (Open), 2 months
[9] = 40° C./75% humidity (Open), 3 months

`CC(C)Oc1ccc(-c2nc(-c3cccc4c3CC[C@@H]4NCCO)no2)cc1C#N` [Ozanimod, reference compound] showed a clearance [1] of 46.3 mL/min/kg, a bioavailability ([1]; read-out: Bioavailability F (%)) of 41.6% and an AUC ([1]; read-out: Concentration Integration AUC) of 1.12 µM·h. For the same molecule, the half-life ([1]; read-out: Half-life T1/2 (converted)) was 5.24 h, the “Percentage of lymphocytes in white blood cells in a unit volume of blood (%)” value (“Percentage of lymphocytes … (%)” for short) (blood lymphocytes; 4 h) was 44.53 ± 3.75 % and the “Rate of change of lymphocytes in blood after administration (%)” value (“Rate of change of lymphocytes in blood … (%)” below) (blood lymphocytes; 4 h) was −71.79 ± 2.51 %. For the same molecule, the “maximum decreasing rate of the number of blood lymphocytes” value (blood lymphocytes; 8 h) was 84.39%, the “Percentage of lymphocytes … (%)” value (blood lymphocytes; 8 h) was 35.69 ± 2.47^****$ % and the “Rate of change of lymphocytes in blood … (%)” value (blood lymphocytes; 8 h) was −84.39 ± 1.16 %. For the same molecule, the “blood lymphocyte decreasing rate” value (blood lymphocytes; 24 h) was 47.26%, the “Percentage of lymphocytes … (%)” value (blood lymphocytes; 24 h) was 58.63 ± 2.17% and the “Rate of change of lymphocytes in blood … (%)” value (blood lymphocytes; 24 h) was −47.26 ± 4.34 %. For the same molecule, the “Percentage of lymphocytes … (%)” value (blood lymphocytes; −0.5 h (before administration)) was 58.67 ± 1.61%, the “Injury area (cm^2)” value [2, 4] was 4.76 ± 0.33 cm^2 and the “Ulcer area (cm^2)” value [2, 4] was 1.12 ± 0.31 cm^2. For the same molecule, the “Injury area (cm^2)” value [2, 5] was 4.60 ± 0.71 cm^2, the “Ulcer area (cm^2)” value [2, 5] was 1.36 ± 0.48 cm^2 and the Inflammation score ([2]; 0.3 mg/kg) was 3.71 ± 0.42. For the same molecule, the Total injury score ([2]; 0.3 mg/kg) was 6.29 ± 0.75, the Ulcer score ([2]; 0.3 mg/kg) was 2.57 ± 0.37 and the Inflammation score ([2]; 1.0 mg/kg) was 3.43 ± 0.30. The Total injury score ([2]; 1.0 mg/kg) was 6.00 ± 0.58 and the Ulcer score ([2]; 1.0 mg/kg) was 2.57 ± 0.30.
With `C[C@]12C=CC(=O)C=C1CC[C@@H]1[C@@H]2[C@@H](O)C[C@@]2(C)[C@H]1CC[C@]2(O)C(=O)CO` [Prednisolone] the “Injury area (cm^2)” value [2, 6] was 4.45 ± 0.82 cm^2, the “Ulcer area (cm^2)” value [2, 6] was 1.58 ± 0.53 cm^2 and the “colon ulcers (dissection at the end of the experiment)” value ([2]; 10 mg/kg, compared to the model group) was “not reduced”. For the same molecule, the Inflammation score ([2]; 10 mg/kg) was 3.00 ± 0.33, the Total injury score ([2]; 10 mg/kg) was 5.00 ± 0.63 and the Ulcer score ([2]; 10 mg/kg) was 2.00 ± 0.38.
For `CC(C)Oc1ccc(-c2nc(-c3cccc4c3C[C@@H]3CC(=O)N(CCO)[C@H]43)no2)cc1C#N` [Crystal Form A], the Appearance [3, 7] was “White powder”, the “Content (%)” value [3, 7] was 101.4% and the “Total Impurity (%)” value [3, 7] was 0.31%. The Appearance [3, 8] was “White powder”, the “Content (%)” value [3, 8] was 98.8% and the “Total Impurity (%)” value [3, 8] was 0.34%. For the same molecule, the Appearance [3, 9] was “White powder”, the “Content (%)” value [3, 9] was 101.8% and the “Total Impurity (%)” value [3, 9] was 0.32%. The “amount of total impurity (change over the test)” value ([3]; 40° C./75% humidity (open), up to 3 months vs day 0) was “did not increase”, the Appearance ([3]; Initial, 0 month) was “White powder” and the “Content (%)” value ([3]; Initial, 0 month) was 101.6%. For the same molecule, the “Total Impurity (%)” value ([3]; Initial, 0 month) was 0.33%.
